In US11840686B2, “Modulation of prekallikrein (PKK) expression” (Ionis Pharmaceuticals, Inc., priority 2013, dated 2023):
Strand notation (5' to 3'): a small letter for the sugar, then the base; units joined by * are phosphorothioate-linked, units joined directly phosphodiester-linked; [ ] holds rarer units or linkages, { } end groups; capitals alone tell only the bases. e = 2'-O-(2-methoxyethyl) (MOE); [5mC] = 5-methylcytosine; d = 2'-deoxy (DNA)

Tested on: human PKK mRNA
Experiment: Antisense inhibition of human PKK mRNA in HepaRG cells, 5,000 nM (Example 2)
Type: cell-based
Settings: HepaRG cells, 5,000 nM antisense oligonucleotide; 5-10-5 gapmers; Table 16
How it was run: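 HepaRG cells, 20,000 per well, were electroporated with 5,000 nM MOE gapmer (phosphorothioate, 5-methylcytosine) and incubated about 24 hours. PKK mRNA was quantified by qRT-PCR with primer probe set RTS3454, normalized to RIBOGREEN total RNA, and expressed as percent inhibition versus untreated controls.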

Substance	% inhibition
546912 (eA*e[5mC]*eA*eT*e[5mC]*dA*d[5mC]*dT*dG*dT*d[5mC]*d[5mC]*dT*dA*dT*eA*eA*e[5mC]*eT*eA; antisense) [compound 546912]	26%
547711 (antisense e[5mC]*e[5mC]*eT*eT*eT*dA*dG*d[5mC]*d[5mC]*dA*d[5mC]*dT*d[5mC]*d[5mC]*dT*e[5mC]*eT*eT*eG*e[5mC]) [compound 547711]	45%
547704 (antisense eA*e[5mC]*eA*eT*e[5mC]*dT*dT*dG*dT*d[5mC]*dA*dT*dT*dA*dA*e[5mC]*eA*eT*e[5mC]*e[5mC]) [compound 547704]	61%
546578 (eG*eA*e[5mC]*eA*eG*dT*dG*dG*dG*d[5mC]*d[5mC]*dA*dG*dA*dG*e[5mC]*e[5mC]*eT*eT*eG; antisense) [compound 546578]	73%

Same assay, conditions: HepaRG cells, 5,000 nM antisense oligonucleotide; 5-10-5 gapmers; Table 17

Substance	% inhibition
547754 (eG*eG*eG*eA*eT*dT*dG*dG*dT*dG*dG*dT*dT*dG*dG*eT*eG*eG*e[5mC]*eG; antisense) [compound 547754]	47%
546606 (e[5mC]*eT*e[5mC]*eA*e[5mC]*d[5mC]*dA*dG*dA*dG*dT*dT*dG*dT*d[5mC]*e[5mC]*e[5mC]*e[5mC]*eA*eG; antisense) [compound 546606]	0%

Same assay, conditions: HepaRG cells, electroporation with 5,000 nM antisense oligonucleotide, approximately 24 hours, PKK mRNA by RT-PCR (RTS3454), relative to untreated control cells; Table 5 experiment

Substance	% inhibition
547290 (antisense eA*eG*e[5mC]*eT*eA*d[5mC]*dA*dT*d[5mC]*d[5mC]*d[5mC]*d[5mC]*dA*d[5mC]*d[5mC]*eT*e[5mC]*eT*eG*eA) [compound 547290]	76%
546150 (e[5mC]*eA*eT*e[5mC]*e[5mC]*d[5mC]*d[5mC]*dA*d[5mC]*d[5mC]*dT*d[5mC]*dT*dG*dA*eA*eG*eA*eA*eG; antisense) [compound 546150]	58%
547291 (antisense eA*eT*eG*eG*eA*dA*dG*d[5mC]*dT*dA*d[5mC]*dA*dT*d[5mC]*d[5mC]*e[5mC]*e[5mC]*eA*e[5mC]*e[5mC]) [compound 547291]	74%
546157 (eG*eG*eG*eT*eG*dG*dA*dA*dT*dG*dT*dG*d[5mC]*dA*d[5mC]*e[5mC]*eT*e[5mC]*eA*eT; antisense) [compound 546157]	85%

Same assay, conditions: HepaRG cells, electroporation with 5,000 nM antisense oligonucleotide, approximately 24 hours, PKK mRNA by RT-PCR (RTS3454), relative to untreated control cells; Table 6 experiment

Substance	% inhibition
547354 (eA*eT*eT*eG*eT*dT*d[5mC]*d[5mC]*dG*dG*dT*dA*d[5mC]*dT*d[5mC]*eT*eG*e[5mC]*e[5mC]*eT; antisense) [compound 547354]	89%
546199 (antisense eT*eG*eG*e[5mC]*eA*dT*dT*d[5mC]*dT*dT*d[5mC]*dA*dA*d[5mC]*dA*e[5mC]*eT*eG*e[5mC]*eT) [compound 546199]	97%
547314 (antisense eG*e[5mC]*eA*e[5mC]*e[5mC]*dT*dG*dT*dT*d[5mC]*dG*dA*dT*dG*dT*eA*e[5mC]*eT*eT*eT) [compound 547314]	73%
547320 (antisense eA*eG*eG*eA*eA*dT*dG*dT*d[5mC]*d[5mC]*dA*dG*dA*dA*dA*e[5mC]*eT*eG*e[5mC]*eA) [compound 547320]	73%
547321 (antisense eT*e[5mC]*eA*eA*eG*dG*dA*dA*dT*dG*dT*d[5mC]*d[5mC]*dA*dG*eA*eA*eA*e[5mC]*eT) [compound 547321]	53%

Same assay, conditions: HepaRG cells, electroporation, 5,000 nM antisense oligonucleotide, approx. 24 hours, primer probe set RTS3454, relative to untreated control cells; Table 11

Substance	% inhibition
547495 (antisense eG*e[5mC]*eT*eG*eG*dT*dG*dA*d[5mC]*dT*dG*d[5mC]*dA*dT*d[5mC]*eT*eG*eA*eG*e[5mC]) [compound 547495]	61%
547526 (antisense eG*e[5mC]*eG*eA*e[5mC]*d[5mC]*dT*d[5mC]*dG*d[5mC]*dA*dT*dT*dG*dT*e[5mC]*eA*eG*e[5mC]*e[5mC]) [compound 547526]	59%
546369 (antisense e[5mC]*eT*e[5mC]*eA*eG*dG*dT*dT*dG*dT*dA*dA*dA*dA*dA*eT*eT*eG*e[5mC]*e[5mC]) [compound 546369]	51%

Same assay, conditions: HepaRG cells, electroporation, 5,000 nM antisense oligonucleotide, approx. 24 hours, primer probe set RTS3454, relative to untreated control cells; Table 12

Substance	% inhibition
546395 (eT*eT*e[5mC]*eA*e[5mC]*dA*dA*d[5mC]*dA*d[5mC]*dA*d[5mC]*dA*dG*dT*e[5mC]*eA*eT*eG*eG; antisense) [compound 546395]	72%
547555 (eT*eG*eT*e[5mC]*eT*d[5mC]*d[5mC]*dT*dT*d[5mC]*d[5mC]*dA*d[5mC]*dT*dT*eG*e[5mC]*eT*e[5mC]*e[5mC]; antisense) [compound 547555]	58%
546406 (eT*eG*eT*e[5mC]*e[5mC]*dT*dG*dT*d[5mC]*dA*dA*d[5mC]*dA*dT*dA*eT*eT*e[5mC]*e[5mC]*eA; antisense) [compound 546406]	80%
547535 (antisense eA*eG*eA*e[5mC]*eA*dG*d[5mC]*d[5mC]*d[5mC]*dA*d[5mC]*d[5mC]*dA*dA*d[5mC]*eA*eA*eT*e[5mC]*eT) [compound 547535]	28%

Same assay, conditions: Table 7; HepaRG cells, electroporation with 5,000 nM antisense oligonucleotide, approx. 24 hours; PKK mRNA by RT-PCR (RTS3454), relative to untreated control cells

Substance	% inhibition
546241 (e[5mC]*eA*eG*eG*eT*dA*dA*dA*dG*dT*dT*d[5mC]*dT*dT*dT*eT*eG*e[5mC]*eA*eG; antisense) [compound 546241]	69%
547389 (e[5mC]*eA*eG*eA*eT*dA*dT*dG*dG*dT*dG*dT*dT*dT*dT*e[5mC]*eT*eT*eG*eA; antisense) [compound 547389]	61%
546237 (e[5mC]*eA*eG*eG*eT*dT*dA*dA*dA*dA*dG*dG*d[5mC]*dT*dA*eT*eA*eT*e[5mC]*e[5mC]; antisense) [compound 546237]	64%

Same assay, conditions: Table 8; HepaRG cells, electroporation with 5,000 nM antisense oligonucleotide, approx. 24 hours; PKK mRNA by RT-PCR (RTS3454), relative to untreated control cells

Substance	% inhibition
546252 (eT*e[5mC]*eT*eT*eG*dG*d[5mC]*dA*dA*dA*d[5mC]*dA*dT*dT*d[5mC]*eA*e[5mC]*eT*e[5mC]*e[5mC]; antisense) [compound 546252]	73%
547430 (e[5mC]*eA*eA*eT*e[5mC]*dT*d[5mC]*dA*dA*dA*dG*dA*dG*dT*dA*eA*e[5mC]*e[5mC]*eA*eG; antisense) [compound 547430]	70%

Same assay, conditions: Table 9 experiment; HepaRG cells, 20,000 cells per well, electroporation with 5,000 nM antisense oligonucleotide, approx. 24 hours; PKK mRNA by RT-PCR (RTS3454), relative to untreated control cells

Substance	% inhibition
547462 (antisense eG*eT*eG*eT*eA*dA*dT*dT*d[5mC]*dA*dA*dA*dG*dG*dA*eG*e[5mC]*e[5mC]*eT*eG) [compound 547462]	59%
547481 (antisense e[5mC]*e[5mC]*eT*eT*e[5mC]*dT*dT*dT*dA*dT*dA*dG*d[5mC]*d[5mC]*dA*eG*e[5mC]*eA*e[5mC]*eA) [compound 547481]	71%
547482 (antisense e[5mC]*e[5mC]*e[5mC]*e[5mC]*eT*dT*d[5mC]*dT*dT*dT*dA*dT*dA*dG*d[5mC]*e[5mC]*eA*eG*e[5mC]*eA) [compound 547482]	90%
546320 (antisense eG*eG*eT*eA*eG*dG*d[5mC]*dA*dT*dA*dT*dT*dG*dG*dT*eT*eT*eT*eT*eG) [compound 546320]	72%
546340 (antisense eT*eA*eA*eT*e[5mC]*dT*dT*dG*dA*dT*dA*dT*d[5mC]*dT*dT*eT*eT*e[5mC]*eT*eG) [compound 546340]	30%
546352 (antisense e[5mC]*eA*e[5mC]*e[5mC]*eA*dG*dG*dT*dT*dG*d[5mC]*dT*d[5mC]*d[5mC]*d[5mC]*eT*eG*e[5mC]*eG*eG) [compound 546352]	75%
546328 (antisense eG*eA*eA*eG*e[5mC]*d[5mC]*d[5mC]*d[5mC]*dA*dT*d[5mC]*d[5mC]*dG*dG*dT*eT*eA*e[5mC]*e[5mC]*e[5mC]) [compound 546328]	84%

Same assay, conditions: Table 10 experiment; HepaRG cells, 20,000 cells per well, electroporation with 5,000 nM antisense oligonucleotide, approx. 24 hours; PKK mRNA by RT-PCR (RTS3454), relative to untreated control cells

Substance	% inhibition
547462 (antisense eG*eT*eG*eT*eA*dA*dT*dT*d[5mC]*dA*dA*dA*dG*dG*dA*eG*e[5mC]*e[5mC]*eT*eG) [compound 547462]	54%
547481 (antisense e[5mC]*e[5mC]*eT*eT*e[5mC]*dT*dT*dT*dA*dT*dA*dG*d[5mC]*d[5mC]*dA*eG*e[5mC]*eA*e[5mC]*eA) [compound 547481]	77%
547482 (antisense e[5mC]*e[5mC]*e[5mC]*e[5mC]*eT*dT*d[5mC]*dT*dT*dT*dA*dT*dA*dG*d[5mC]*e[5mC]*eA*eG*e[5mC]*eA) [compound 547482]	65%
546320 (antisense eG*eG*eT*eA*eG*dG*d[5mC]*dA*dT*dA*dT*dT*dG*dG*dT*eT*eT*eT*eT*eG) [compound 546320]	69%
546340 (antisense eT*eA*eA*eT*e[5mC]*dT*dT*dG*dA*dT*dA*dT*d[5mC]*dT*dT*eT*eT*e[5mC]*eT*eG) [compound 546340]	56%
546352 (antisense e[5mC]*eA*e[5mC]*e[5mC]*eA*dG*dG*dT*dT*dG*d[5mC]*dT*d[5mC]*d[5mC]*d[5mC]*eT*eG*e[5mC]*eG*eG) [compound 546352]	74%
546328 (antisense eG*eA*eA*eG*e[5mC]*d[5mC]*d[5mC]*d[5mC]*dA*dT*d[5mC]*d[5mC]*dG*dG*dT*eT*eA*e[5mC]*e[5mC]*e[5mC]) [compound 546328]	81%

Same assay, conditions: Table 13; human PKK mRNA in HepaRG cells; 5-10-5 gapmers

Substance	% inhibition
546773 (eT*e[5mC]*eT*e[5mC]*eT*dA*dG*d[5mC]*dA*dT*d[5mC]*d[5mC]*dT*dA*dG*eT*e[5mC]*e[5mC]*eT*e[5mC]; antisense) [compound 546773]	67%
546735 (e[5mC]*eA*eA*e[5mC]*e[5mC]*dT*dG*dT*d[5mC]*d[5mC]*dA*dT*dT*d[5mC]*d[5mC]*e[5mC]*eT*eG*eG*eG; antisense) [compound 546735]	46%
547571 (eA*eA*eA*eT*eG*dA*d[5mC]*dA*d[5mC]*d[5mC]*dA*dA*dA*dA*dT*eT*eG*eA*eG*eT; antisense) [compound 547571]	14%

Same assay, conditions: human PKK mRNA in HepaRG cells; 5-10-5 gapmers; Table 14

Substance	% inhibition
546878 (e[5mC]*e[5mC]*eT*eA*eT*dA*dA*d[5mC]*dA*dG*dT*dA*dT*d[5mC]*dA*e[5mC]*eT*eG*eT*e[5mC]; antisense) [compound 546878]	81%

Same assay, conditions: human PKK mRNA, HepaRG cells, 5,000 nM antisense oligonucleotide, Table 18

Substance	% inhibition
548734 (DNA eT*e[5mC]*eA*e[5mC]*dT*dG*dT*dA*d[5mC]*dT*dA*dG*dT*dT*eT*e[5mC]*e[5mC]; antisense) [compound 548734]	51%

Same assay, conditions: human PKK mRNA, HepaRG cells; 5-10-5 motif oligonucleotides targeting SEQ ID NO: 1 and 10

Substance	% inhibition
547642 (eT*e[5mC]*eA*e[5mC]*eT*dG*dT*d[5mC]*d[5mC]*dT*dA*dT*dA*dA*d[5mC]*eT*eA*eT*eA*eA; antisense) [compound 547642]	72%
